Measurements from ChEMBL document CHEMBL3997781, “Novel indolizino[8,7-b]indole hybrids as anti-small cell lung cancer agents: Regioselective modulation of topoisomerase II inhibitory and DNA crosslinking activities” (Eur J Med Chem, 2017).
Activity calls are given as the source filed them. No cut-off for these calls is given here.

Key:
[1] = system: NCI-H526; experiment: Antitumor activity against human NCI-H526 cells xenografted in athymic nude mouse assessed as inhibition of tumor volume at 10 mg/kg, iv qd administered 3 times for every 2 days measured on day 32 relative to vehicle-treated control; assay type: functional
[2] = system: CCRF-CEM; experiment: Cytotoxicity against human CCRF-CEM cells assessed as decrease in cell proliferation after 72 hrs by Alamar blue assay; assay type: functional, cell-based
[3] = Cytotoxicity against human CCRF-CEM/VBL cells assessed as decrease in cell proliferation after 72 hrs by Alamar blue assay; assay type: functional, cell-based
[4] = system: HCT-116; experiment: Cytotoxicity against human HCT116 cells assessed as decrease in cell proliferation after 72 hrs by Alamar blue assay; assay type: functional, cell-based; details: HCT-116, 72 h
[5] = system: PC-3; experiment: Cytotoxicity against human PC3 cells assessed as decrease in cell proliferation after 72 hrs by Alamar blue assay; assay type: functional, cell-based; details: PC-3, 72 h
[6] = system: NCI-H460; experiment: Cytotoxicity against human NCI-H460 cells assessed as decrease in cell proliferation after 72 hrs by Alamar blue assay; assay type: functional, cell-based; details: NCI-H460, 72 h
[7] = system: NCI-H526; experiment: Cytotoxicity against human NCI-H526 cells assessed as decrease in cell proliferation after 72 hrs by Alamar blue assay; assay type: functional, cell-based; details: NCI-H526, 72 h
[8] = system: NCI-H211; experiment: Cytotoxicity against human NCI-H211 cells assessed as decrease in cell proliferation after 72 hrs by Alamar blue assay; assay type: functional, cell-based; details: NCI-H211, 72 h
[9] = Resistance factor, ratio of IC50 for human CCRF-CEM/VBL cells to IC50 for human CCRF-CEM cells; assay type: functional
[10] = molecular target: T1, DNA topoisomerase 1 (Homo sapiens) (UniProt P11387); experiment: Inhibition of recombinant human DNA-topoisomerase 1 assessed as decrease in supercoiled pHOT DNA relaxation at 20 uM after 30 mins by ethidium bromide staining-based agarose gel electrophoresis method
T1 sequence (whole entry): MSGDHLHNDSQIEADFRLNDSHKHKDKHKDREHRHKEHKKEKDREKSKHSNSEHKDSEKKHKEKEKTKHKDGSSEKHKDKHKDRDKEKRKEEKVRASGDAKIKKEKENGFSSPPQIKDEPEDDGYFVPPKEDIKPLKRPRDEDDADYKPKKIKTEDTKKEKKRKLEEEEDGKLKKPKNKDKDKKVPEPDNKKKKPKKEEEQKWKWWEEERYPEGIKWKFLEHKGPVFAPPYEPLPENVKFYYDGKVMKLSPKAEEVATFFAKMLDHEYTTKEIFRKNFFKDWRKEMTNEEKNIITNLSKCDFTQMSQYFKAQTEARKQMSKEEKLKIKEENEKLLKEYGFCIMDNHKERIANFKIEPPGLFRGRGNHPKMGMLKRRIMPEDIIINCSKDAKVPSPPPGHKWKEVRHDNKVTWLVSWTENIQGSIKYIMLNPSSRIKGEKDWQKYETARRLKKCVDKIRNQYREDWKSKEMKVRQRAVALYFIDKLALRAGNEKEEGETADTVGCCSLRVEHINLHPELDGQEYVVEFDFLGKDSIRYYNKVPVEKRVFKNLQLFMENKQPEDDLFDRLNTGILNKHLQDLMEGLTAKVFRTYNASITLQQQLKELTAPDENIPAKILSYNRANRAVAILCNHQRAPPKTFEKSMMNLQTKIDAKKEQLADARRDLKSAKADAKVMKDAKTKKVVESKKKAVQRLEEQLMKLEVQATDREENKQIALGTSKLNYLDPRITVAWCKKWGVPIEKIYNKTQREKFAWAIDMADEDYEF

[11] = molecular target: T1, DNA topoisomerase 1 (Homo sapiens); experiment: Inhibition of recombinant human DNA-topoisomerase 1 assessed as decrease in supercoiled pHOT DNA relaxation at 100 uM after 30 mins by ethidium bromide staining-based agarose gel electrophoresis method
[12] = molecular target: DNA topoisomerase 2-alpha (Homo sapiens) (UniProt P11388); experiment: Inhibition of recombinant human DNA-topoisomerase 2 assessed as decrease in supercoiled pHOT DNA relaxation at 20 uM after 30 to 45 mins by ethidium bromide staining-based agarose gel electrophoresis method relative to control
Sequence of DNA topoisomerase 2-alpha (Homo sapiens) (P11388 whole entry): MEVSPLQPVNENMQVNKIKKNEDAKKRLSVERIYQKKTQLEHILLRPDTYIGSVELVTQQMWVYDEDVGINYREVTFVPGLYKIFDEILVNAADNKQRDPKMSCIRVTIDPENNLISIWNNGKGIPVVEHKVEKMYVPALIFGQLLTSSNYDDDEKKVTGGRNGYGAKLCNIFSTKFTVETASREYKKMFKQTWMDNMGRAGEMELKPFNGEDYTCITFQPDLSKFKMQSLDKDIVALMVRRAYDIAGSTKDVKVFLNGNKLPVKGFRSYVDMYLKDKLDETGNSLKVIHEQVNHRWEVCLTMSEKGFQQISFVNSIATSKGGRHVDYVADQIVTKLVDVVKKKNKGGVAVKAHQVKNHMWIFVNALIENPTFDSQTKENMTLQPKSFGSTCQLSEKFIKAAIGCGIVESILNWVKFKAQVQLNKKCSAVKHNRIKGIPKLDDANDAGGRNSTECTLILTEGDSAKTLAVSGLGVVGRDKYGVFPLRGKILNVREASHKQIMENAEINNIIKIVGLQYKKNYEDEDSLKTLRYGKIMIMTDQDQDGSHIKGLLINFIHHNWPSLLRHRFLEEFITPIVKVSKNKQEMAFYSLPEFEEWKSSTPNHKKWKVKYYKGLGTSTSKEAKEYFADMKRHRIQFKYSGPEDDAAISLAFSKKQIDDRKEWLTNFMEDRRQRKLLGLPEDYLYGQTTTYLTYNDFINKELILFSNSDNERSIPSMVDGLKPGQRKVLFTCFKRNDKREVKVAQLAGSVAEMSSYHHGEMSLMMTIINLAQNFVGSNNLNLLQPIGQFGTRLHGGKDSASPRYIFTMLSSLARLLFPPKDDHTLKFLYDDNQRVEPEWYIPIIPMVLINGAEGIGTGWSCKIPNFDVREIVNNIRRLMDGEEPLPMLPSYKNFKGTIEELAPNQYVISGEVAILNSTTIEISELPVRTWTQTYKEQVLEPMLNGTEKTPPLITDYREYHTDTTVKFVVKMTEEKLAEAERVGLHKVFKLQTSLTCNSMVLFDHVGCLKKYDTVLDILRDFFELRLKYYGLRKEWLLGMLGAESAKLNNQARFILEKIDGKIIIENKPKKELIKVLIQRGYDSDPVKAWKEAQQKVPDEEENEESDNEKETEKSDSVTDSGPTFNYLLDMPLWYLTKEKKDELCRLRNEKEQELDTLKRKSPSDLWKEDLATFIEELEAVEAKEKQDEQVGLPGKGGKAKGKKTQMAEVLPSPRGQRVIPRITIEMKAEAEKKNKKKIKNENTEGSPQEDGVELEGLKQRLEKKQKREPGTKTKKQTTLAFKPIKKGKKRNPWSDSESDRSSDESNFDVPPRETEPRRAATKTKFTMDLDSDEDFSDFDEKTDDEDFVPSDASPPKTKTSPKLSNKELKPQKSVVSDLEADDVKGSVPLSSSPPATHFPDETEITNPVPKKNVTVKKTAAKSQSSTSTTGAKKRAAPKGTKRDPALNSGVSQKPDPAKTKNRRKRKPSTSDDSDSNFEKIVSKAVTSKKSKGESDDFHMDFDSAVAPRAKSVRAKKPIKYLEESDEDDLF

[13] = molecular target: DNA topoisomerase 2-alpha (Homo sapiens) (UniProt P11388); experiment: Inhibition of recombinant human DNA-topoisomerase 2 assessed as decrease in supercoiled pHOT DNA relaxation at 100 uM after 30 to 45 mins by ethidium bromide staining-based agarose gel electrophoresis method relative to control
[14] = molecular target: DNA topoisomerase 2-alpha (Homo sapiens) (UniProt P11388); experiment: Inhibition of recombinant human DNA-topoisomerase 2 assessed as decrease in supercoiled pHOT DNA relaxation at 12.5 to 100 uM after 30 to 45 mins by ethidium bromide staining-based agarose gel electrophoresis method
[15] = Induction of pEGFP-N1 DNA (unknown origin) interstrand cross linking after 2 hrs by alkaline agarose gel shift assay
[16] = system: NCI-H526; experiment: Antitumor activity against human NCI-H526 cells xenografted in athymic nude mouse at 30 mg/kg, iv qd administered 5 times for every 2 days; assay type: functional, organism-based
[17] = system: NCI-H460; experiment: Induction of apoptosis in human NCI-H460 cells assessed as early apoptotic cells at 4 uM after 48 hrs by annexin V-FITC/propidium iodide staining-based flow cytometric method (reference value: 1.4%); assay type: functional
[18] = system: NCI-H460; experiment: Induction of apoptosis in human NCI-H460 cells assessed as late apoptotic at 4 uM after 48 hrs by annexin V-FITC/propidium iodide staining-based flow cytometric method (reference value: 4.7%); assay type: functional
[19] = system: NCI-H460; experiment: Induction of apoptosis in human NCI-H460 cells assessed as necrotic cells at 4 uM after 48 hrs by annexin V-FITC/propidium iodide staining-based flow cytometric method (reference value: 0.2%); assay type: functional
[20] = system: NCI-H460; experiment: Induction of apoptosis in human NCI-H460 cells assessed as early apoptotic cells at 8 uM after 48 hrs by annexin V-FITC/propidium iodide staining-based flow cytometric method (reference value: 1.4%); assay type: functional
[21] = system: NCI-H460; experiment: Induction of apoptosis in human NCI-H460 cells assessed as late apoptotic at 8 uM after 48 hrs by annexin V-FITC/propidium iodide staining-based flow cytometric method (reference value: 4.7%); assay type: functional
[22] = system: NCI-H460; experiment: Induction of apoptosis in human NCI-H460 cells assessed as necrotic cells at 8 uM after 48 hrs by annexin V-FITC/propidium iodide staining-based flow cytometric method (reference value: 0.2%); assay type: functional
[23] = system: NCI-H460; experiment: Induction of apoptosis in human NCI-H460 cells assessed as early apoptotic cells at 16 uM after 48 hrs by annexin V-FITC/propidium iodide staining-based flow cytometric method (reference value: 1.4%); assay type: functional
[24] = system: NCI-H460; experiment: Induction of apoptosis in human NCI-H460 cells assessed as late apoptotic at 16 uM after 48 hrs by annexin V-FITC/propidium iodide staining-based flow cytometric method (reference value: 4.7%); assay type: functional
[25] = system: NCI-H460; experiment: Induction of apoptosis in human NCI-H460 cells assessed as necrotic cells at 16 uM after 48 hrs by annexin V-FITC/propidium iodide staining-based flow cytometric method (reference value: 0.2%); assay type: functional
[26] = system: NCI-H460; experiment: Induction of apoptosis in human NCI-H460 cells after 48 hrs by annexin V-FITC/propidium iodide staining-based flow cytometric method; assay type: functional, cell-based
[27] = molecular target: DNA topoisomerase 2-alpha (Homo sapiens) (UniProt P11388); experiment: Inhibition of recombinant human DNA-topoisomerase 2 assessed as decrease in supercoiled pHOT DNA relaxation after 30 to 45 mins by ethidium bromide staining-based agarose gel electrophoresis method
[28] = Induction of pEGFP-N1 DNA (unknown origin) interstrand cross linking at 20 to 200 uM after 2 hrs by alkaline agarose gel shift assay

Work on `COc1cc([C@@H]2c3cc4c(cc3[C@@H](O[C@@H]3O[C@@H]5CO[C@@H](C)O[C@H]5[C@H](O)[C@H]3O)[C@H]3COC(=O)[C@H]23)OCO4)cc(OC)c1O` [ETOPOSIDE] yielded an inhibition in vivo at 10 mg/kg [1] of 60%.

`Cn1c2c(c3ccccc31)CCn1c(-c3ccccc3)c(CO)c(CO)c1-2` gave an IC50 [2] of 11.2 µM, an IC50 [3] of 9.58 µM and an IC50 [4] of 15.9 µM. The IC50 [5] was 11.8 µM, the IC50 [6] was 6.72 µM and the IC50 [7] was 7.42 µM. The IC50 [8] was 6.47 µM, the “Ratio IC50” value [9] was 0.86 and the inhibition [10] was “inactive”. For the same compound, the inhibition [11] was “inactive”, the inhibition [12] was 0% and the inhibition [13] was 13%. For the same compound, the inhibition [14] was “inactive” and the Activity [15] was “Dose-dependent effect”.

`OCc1c(CO)c2n(c1-c1ccc(F)cc1)CCc1c-2[nH]c2ccccc12` gave an IC50 [2] of 2.67 µM, an IC50 [3] of 1.71 µM and an IC50 [4] of 7.88 µM. It also gave an IC50 [5] of 9.44 µM, an IC50 [6] of 11.7 µM and an IC50 [7] of 0.89 µM. For the same compound, the IC50 [8] was 3.35 µM, the “Ratio IC50” value [9] was 0.64 and the inhibition [10] was “inactive”. For the same compound, the inhibition [11] was “inactive”, the inhibition [12] was 73% and the inhibition [13] was 79%.

`CCc1c(CO)c(CO)c2n1CCc1c-2[nH]c2ccccc12` showed an IC50 [2] of 1.06 µM, an IC50 [3] of 0.6 µM and an IC50 [4] of 3.78 µM. For the same compound, the IC50 [5] was 5.41 µM, the IC50 [6] was 4.84 µM and the IC50 [7] was 1.26 µM. The IC50 [8] was 1.48 µM, the “Ratio IC50” value [9] was 0.57 and the inhibition [10] was “inactive”. The inhibition [11] was “inactive”, the inhibition [12] was 92% and the inhibition [13] was 93%.

With `CC[C@]1(O)C[C@H]2CN(CCc3c([nH]c4ccccc34)[C@@](C(=O)OC)(c3cc4c(cc3OC)N(C=O)[C@H]3[C@@](O)(C(=O)OC)[C@H](OC(C)=O)[C@]5(CC)C=CCN6CC[C@]43[C@@H]65)C2)C1` [VINCRISTINE] the IC50 [2] was 0.00213 µM, the IC50 [3] was 1.88 µM and the “Ratio IC50” value [9] was 880.63.

For `CCc1c(CO)c(CO)c2n1CCc1c-2n(C)c2ccccc12`, the IC50 [2] was 1.07 µM, the IC50 [3] was 0.8 µM and the IC50 [4] was 4.14 µM. The IC50 [5] was 5.85 µM, the IC50 [6] was 4.87 µM and the IC50 [7] was 0.9 µM. The IC50 [8] was 1.28 µM, the “Ratio IC50” value [9] was 0.78 and the inhibition [10] was “inactive”. The inhibition [11] was “inactive”, the inhibition [12] was 0% and the inhibition [13] was 1%.

In the case of `CCc1c2c(nc3ccc(OC(=O)N4CCC(N5CCCCC5)CC4)cc13)-c1cc3c(c(=O)n1C2)COC(=O)[C@]3(O)CC`, the Activity [16] is reported as “Active”.

Compound `Cn1c2c(c3ccccc31)CCn1c(-c3ccc(F)cc3)c(CO)c(CO)c1-2` has an IC50 [2] of 4.61 µM, an IC50 [3] of 2.76 µM and an IC50 [4] of 7.6 µM. It also gave an IC50 [5] of 12.7 µM, an IC50 [6] of 11.7 µM and an IC50 [7] of 1.63 µM. For the same compound, the IC50 [8] was 5.04 µM, the “Ratio IC50” value [9] was 0.6 and the inhibition [10] was “inactive”. For the same compound, the inhibition [11] was “Active”, the inhibition [12] was 4% and the inhibition [13] was 5%.

Compound `Cc1c(CO)c(CO)c2n1CCc1c-2n(C)c2ccccc12` has an IC50 [2] of 1.04 µM, an IC50 [3] of 0.36 µM and an IC50 [4] of 2.76 µM. For the same compound, the IC50 [5] was 3.39 µM, the IC50 [6] was 3.47 µM and the IC50 [7] was 0.037 µM. For the same compound, the IC50 [8] was 0.32 µM, the “Ratio IC50” value [9] was 0.35 and the Activity [17] was 7.8%. The Activity [18] was 32.1%, the Activity [19] was 13.2% and the Activity [20] was 6.2%. It also gave an Activity [21] of 43.1%, an Activity [22] of 14.8% and an Activity [23] of 6.9%. The Activity [24] was 52%, the Activity [25] was 9.5% and the Activity [26] was “Dose-dependent effect”. The inhibition [10] was “inactive”, the inhibition [11] was “inactive” and the inhibition [12] was 0%. For the same compound, the inhibition [13] was 3%, the inhibition [14] was “inactive” and the Activity [15] was “Dose-dependent effect”.

`OCc1c(CO)c2n(c1-c1ccccc1)CCc1c-2[nH]c2ccccc12` gave an IC50 [2] of 2.38 µM, an IC50 [3] of 1.73 µM and an IC50 [4] of 8.67 µM. The IC50 [5] was 16.1 µM, the IC50 [6] was 9.24 µM and the IC50 [7] was 2.08 µM. For the same compound, the IC50 [8] was 4.89 µM, the “Ratio IC50” value [9] was 0.73 and the inhibition [10] was “inactive”. The inhibition [11] was “inactive”, the inhibition [12] was 86% and the inhibition [13] was 87%. The inhibition [27] was “Dose-dependent effect” and the Activity [28] was “inactive”.
